# Results as given in patent publication US4910191A, “19-substituted progesterone derivatives useful as 19-hydroxylase inhibitors” (Merrell Dow Pharmaceuticals Inc., priority 1988, dated 1990).
# Assays:
# [1] = test system: weanling SHR rats; conditions: administered to weanling SHR rats; Melby et al., 1987; cited from earlier work
# [2] = biological target: adrenal 19-hydroxylase; assay: in vitro radioenzymatic assay, inhibition of adrenal 19-hydroxylase (19-hydroxylation of radiolabeled deoxycorticosterone); assay type: biochemical, rat, hamster, bovine, primate, or human
# Protocol: The compounds of the present invention are useful as 19-hydroxylase inhibitors and antihypertensive agents. […] The test compounds are solubilized in buffer/solvent media at concentrations ranging from 1 nM to 50 μM, then added to assay tubes containing an adrenal mitochondrial suspension, i.e., rat, hamster, bovine, primate, or human, an NADPH-generating system, and radiolabeled deoxycorticosterone. The assay components are incubated for varying time intervals at 25°-37° C. and the reaction is quenched. The hydroxylated corticoids [i.e., 19--HO--DOC (19-hydroxydesoxycorticosterone), 18--HO--DOC(18-hydroxydeoxycorticosterone) and corticosterone] are extracted with organic solvent and isolated by standard chromatographic procedures.
# [3] = times the potency of DOC; Kagawa et al., 1957; cited from earlier work
# [4] = Funder et al., 1978; cited from earlier work
# [5] = test system: bad bladder epithelia; conditions: relative to aldosterone; Perrone et al., 1981; cited from earlier work
smiles,measurement,setting,value
"C#CC[C@]12CCC(=O)C=C1CC[C@@H]1[C@@H]2CC[C@]2(C)C(=O)CC[C@@H]12 [10-(2-propynyl)estr-4-ene-3,17-dione]",development of hypertension,[1],retards the development of hypertension
same,levels of urinary free 19-norDOC,[1],reduces the levels of urinary free 19-norDOC
"C#CC[C@]12CCC(=O)C=C1CC[C@@H]1[C@@H]2CC[C@]2(C)[C@@H](C(=O)CO)CC[C@@H]12 [21-hydroxy-10-(2-propynyl)-19-norpregn-4-ene-3,20-dione]",IC50,"[2]; adrenal mitochondrial suspension, NADPH-generating system, radiolabeled deoxycorticosterone, 25°-37° C., time-dependent, read-out: IC50 (time-dependent enzyme inhibition)",~50 nM
same,affinity for the 19-hydroxylase active site relative to the natural substrate (DOC),[2]; greater affinity than DOC,12 times
"C[C@]12CC[C@H]3[C@@H](CCC4=CC(=O)CC[C@@H]43)[C@@H]1CC[C@@H]2C(=O)CO [Example 19-norDOC, 19-nordeoxycorticosterone]","Na-retaining activity, potency relative to DOC",[3],two to five
same,hypertensive activity compared to deoxycorticosterone (DOC),[4],much higher hypertensive activity
same,"stimulating Na^+ transport across bladder epithelia, potency vs aldosterone",[5],equipotent to aldosterone
